Patent US9676997B2, “Compositions and methods for stabilizing luminogenic substrates” (Promega Corporation, priority 2014, dated 2017)
Read-outs that look alike come from different tables or passages of the source.

Assay: Stability of 1.25 mM coelenterazine-h in 50% ethanol and 50% propylene glycol with or without 225 mM ATT, HPLC and Arrhenius plots
Assay type: physicochemical
Method: The stability of coelenterazine-h in the presence and absence of ATT was measured over time at different temperatures. Specifically, 1.25 mM coelenterazine-h was present in a solution of 50% ethanol and 50% propylene glycol (i.e., the solution without ATT) or a solution of 50% ethanol and 50% propylene glycol with 225 mM ATT (i.e., the solution with ATT). These two solutions were incubated at −20° C., room temperature (RT), 40° C., or 60° C. and analyzed at for 0 days, 1 day, 3 days, 7 days, 15 days, and 30 days.
Following incubation, high performance liquid chromatography (HPLC) was utilized to identify the components of the respective solutions at each time point. Specifically, an Agilent 1100 HPLC instrument was used and equipped with a quaternary pump, thermostatted autosampler and column compartment, and a G1311B diode-array detector. The column used was a Synergi-MAX-RP (Phenomenex, Torrance, Calif.) 100 AÅ 50×4.6 2.5 μm. The run on the HPLC was a gradient run with 0.1% TFA in water and acetonitrile. Absorbance was measured at 262 nanometers (nm). Standards of coelenterazine-h and its known degradants were run to confirm both the retention time and absorbance trace. 5 μl of each solution was injected and the retention time of coelenterazine-h was 4.7 minutes at room temperature.
The results of the HPLC analysis are shown below in Tables 4 and 5 and FIGS. 2A and 2B, in which the values are reported as relative peak area percentage at 262 nm (i.e., the lamba max of the substrate). […] In each of FIGS. 2A and 2B, diamond is 1.25 mM coelenterazine-h incubated over time with or without 225 mM ATT, respectively, at −20° C., triangle is 1.25 mM coelenterazine-h incubated over time with or without 225 mM ATT, respectively, at room temperature (RT), star is 1.25 mM coelenterazine-h incubated over time with or without 225 mM ATT, respectively, at 40° C., and cross is 1.25 mM coelenterazine-h incubated over time with or without 225 mM ATT, respectively, at 60° C.
From the HPLC analysis, the half-life of coelenterazine-h in the presence of ATT at 40° C. and 60° C. was calculated to be 20 days and 5 days, respectively, while the half-life of coelenterazine-h in the absence of ATT at 20° C., 40° C. and 60° C. was calculated to be 24 days, 7.5 days and 2 days, respectively (see Table 6 below).
Additionally, Arrhenius plots were generated for coelenterazine-h in the presence and absence of ATT to calculate the half-life of coelenterazine-h at various temperatures. The Arrhenius equation is as follows: […]
In FIG. 9, the slope was −8131.2, the intercept was 22.6157, and R^2 was 0.9994.
In FIG. 10, the slope was −7310.53, the intercept was 21.4386, and R^2 was 0.9964.

[1] = decomposition of coelenterazine-h

## O=c1c(Cc2ccccc2)nc2c(Cc3ccccc3)[nH]c(-c3ccc(O)cc3)cn1-2 [Coelenterazine-h (15-957-39), coelenterazine-h]
40° C., 0 days
  relative peak area percentage at 262 nm: 95.5%
40° C., 1 day
  relative peak area percentage at 262 nm: 84.3%
40° C., 3 days
  relative peak area percentage at 262 nm: 71.5%
40° C., 7 days
  relative peak area percentage at 262 nm: 54.2%
40° C., 15 days
  relative peak area percentage at 262 nm: 26.7%
40° C., 30 days
  relative peak area percentage at 262 nm: 1.6%
60° C., 0 days
  relative peak area percentage at 262 nm: 95.5%
60° C., 1 day
  relative peak area percentage at 262 nm: 63.6%
60° C., 3 days
  relative peak area percentage at 262 nm: 32.3%
60° C., 7 days
  relative peak area percentage at 262 nm: 1.2%
RT, 0 days
  relative peak area percentage at 262 nm: 95.5%
RT, 1 day
  relative peak area percentage at 262 nm: 92.9%
RT, 3 days
  relative peak area percentage at 262 nm: 88.1%
RT, 7 days
  relative peak area percentage at 262 nm: 80.7%
RT, 15 days
  relative peak area percentage at 262 nm: 66.7%
RT, 30 days
  relative peak area percentage at 262 nm: 36.6%
[1]
  Arrhenius plot intercept: 21.4386
  Arrhenius plot slope: −7310.53
Solution in 50% ethanol and 50% propylene glycol, 40° C., read-out: T1/2 Calculated from Arrhenius (converted)
  half-life at 1.25 mM: 113 h
Solution of 50% ethanol and 50% propylene glycol, 20° C., read-out: T1/2 Calculated from Arrhenius (converted)
  half-life at 1.25 mM: 557 h
Solution of 50% ethanol and 50% propylene glycol, 20° C., read-out: T1/2 Estimated from graph (converted)
  half-life at 1.25 mM: 576 h
Solution of 50% ethanol and 50% propylene glycol, 40° C., read-out: T1/2 Estimated from graph (converted)
  half-life at 1.25 mM: 180 h
Solution of 50% ethanol and 50% propylene glycol, 60° C., read-out: T1/2 Calculated from Arrhenius (converted)
  half-life at 1.25 mM: 28.8 h
Solution of 50% ethanol and 50% propylene glycol, 60° C., read-out: T1/2 Estimated from graph (converted)
  half-life at 1.25 mM: 48 h
Solution of 50% ethanol and 50% propylene glycol, −20° C., read-out: T1/2 Calculated from Arrhenius (converted)
  half-life at 1.25 mM: 28900 h
−20° C., 0 days
  relative peak area percentage at 262 nm: 95.5%
−20° C., 1 day
  relative peak area percentage at 262 nm: 95.4%
−20° C., 3 days
  relative peak area percentage at 262 nm: 95.0%
−20° C., 7 days
  relative peak area percentage at 262 nm: 95.0%
−20° C., 15 days
  relative peak area percentage at 262 nm: 94.6%
−20° C., 30 days
  relative peak area percentage at 262 nm: 88.8%
